Paper PMC4547397, “A Caged Ret Kinase Inhibitor and its Effect on Motoneuron Development in Zebrafish Embryos” (Scientific Reports, 2015)
pIC50: −log10 of the molar value. “Also recorded” adds a separate entry of the source. Where two headings read alike, the source gives them in different places.

Experiments:
Human recombinant RET = molecular target: T1, Human recombinant RET (Homo sapiens, UniProt P07949); assay: In vitro (cell-free) RET kinase incubation, luminescent ADP detection; type: biochemical; details: for pIC50: read-out: IC50, RET-induced ATP turnover; for RET kinase activity: 1.6 μM
T1 construct: purchased Promega; host or cells: Sf9 insect cells
T1 sequence (P07949 29-1114): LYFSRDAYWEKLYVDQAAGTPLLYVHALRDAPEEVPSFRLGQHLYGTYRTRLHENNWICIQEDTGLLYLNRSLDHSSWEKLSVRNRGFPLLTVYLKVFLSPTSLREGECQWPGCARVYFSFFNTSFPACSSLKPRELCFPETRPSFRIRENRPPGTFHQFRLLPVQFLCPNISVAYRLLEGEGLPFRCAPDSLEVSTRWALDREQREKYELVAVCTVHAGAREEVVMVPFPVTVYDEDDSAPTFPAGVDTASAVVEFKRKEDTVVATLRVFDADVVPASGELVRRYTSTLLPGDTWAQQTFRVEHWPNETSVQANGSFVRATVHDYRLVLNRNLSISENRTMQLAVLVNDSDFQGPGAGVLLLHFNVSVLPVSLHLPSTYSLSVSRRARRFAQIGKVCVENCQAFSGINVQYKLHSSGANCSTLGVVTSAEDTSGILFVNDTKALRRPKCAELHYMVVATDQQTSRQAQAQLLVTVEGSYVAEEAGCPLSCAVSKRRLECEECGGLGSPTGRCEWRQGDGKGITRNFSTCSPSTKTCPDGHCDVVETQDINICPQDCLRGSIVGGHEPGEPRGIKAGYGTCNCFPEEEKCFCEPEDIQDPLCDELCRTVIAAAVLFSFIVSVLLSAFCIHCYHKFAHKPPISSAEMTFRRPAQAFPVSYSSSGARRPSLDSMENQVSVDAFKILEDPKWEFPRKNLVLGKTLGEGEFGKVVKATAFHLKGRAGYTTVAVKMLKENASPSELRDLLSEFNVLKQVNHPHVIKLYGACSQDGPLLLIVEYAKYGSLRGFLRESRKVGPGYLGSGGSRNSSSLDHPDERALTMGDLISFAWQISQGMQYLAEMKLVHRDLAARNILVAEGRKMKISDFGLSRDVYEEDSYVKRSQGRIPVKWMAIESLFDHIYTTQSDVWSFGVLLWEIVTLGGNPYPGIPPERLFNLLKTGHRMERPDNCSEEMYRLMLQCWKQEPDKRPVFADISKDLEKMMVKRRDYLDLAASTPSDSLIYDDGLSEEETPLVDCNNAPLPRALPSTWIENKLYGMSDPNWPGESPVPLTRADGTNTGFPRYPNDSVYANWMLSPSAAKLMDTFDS
Method: With the caged compound in hand, the ability to photocontrol the inhibition of RET kinase was assessed. For this purpose, an in vitro assay with purified RET kinase was used to measure ADP production during substrate phosphorylation. Compound 6 was added to two parallel preparations comprising RET kinase and substrate. One preparation was exposed to light (365 nm, 15 min), while the other was kept in the dark.
After adding ATP and incubating at room temperature for 30 min, the relative ATP turnover was assessed. […] For example; irradiating an administered dose of 1.6 μM 6, would modulate the RET kinase activity from 90% to 10%.
Human recombinant RET expressed in Sf9 insect cells (Specific Activity: 220 nmol^−1min^−1mg^−1), substrate (IGFlRtide), and ATP were purchased in an assay ready kit from Promega[37] (Promega Corporation, Madison WI 53711 USA) and used as received. Incubations were performed in 40 mM Tris buffer (pH 7.4, 1 vol% DMSO) supplemented with 50 μM DTT and 20 mM MgCl2 in a white flat-bottom 96-well plate. Incubation volume was 25 μL. Brief procedure; Kinase (0.8 μg/mL), substrate (40 μg/mL), ATP (10 μM) and inhibitor were combined and incubated for 30 min at room temperature in the dark, with shaking. After the kinase reaction, two detection reagents were added in a stepwise manner. The first reagent depleted the remaining (unreacted) ATP in the reaction mix. The second reagent converted the ADP produced in the kinase reaction to ATP and generated a luminescence signal using a luciferase/luciferin reaction. The light generated is proportional to the amount ADP present and, consequently, to the kinase activity. Luminescence was recorded on a BMG Labtech Fluostar Omega luminometer. All incubations were done in duplicates.
2. Fitting of dose-response data
Positive and negative control experiments with and without light exposure (15 min, 365 nm) were run in parallel to the inhibitor incubations. The positive control was identical to the inhibitor experiment but with buffer additions instead of ATP and Neurturin for the cell-free and live-cell incubation, respectively. The negative control was identical to the inhibitor experiment but with inhibitor diluent (DMSO) addition instead of inhibitor. The intensity reading from the positive control was subtracted from the corresponding value from the inhibitor incubation. This was followed by normalization to the negative control reading. The resulting luminescence intensities (I) at the applied inhibitor concentrations (C) were fitted to […]
A global, error-weighted (instrumental) fit was performed by making the top- (A2) and bottom (A1) asymptotes shared parameters for the included data sets. […]
140/2013, and followed the guidelines of the Swedish National Board for Laboratory

RET kinase (c-RET-GFRα2) = RET kinase (c-RET-GFRα2) (Homo sapiens, UniProt P07949); assay: PathHunter express c-RET-GFRα2 functional live-cell assay (neurturin stimulated); type: cell-based
Sequence of RET kinase (c-RET-GFRα2) (P07949 29-1114): as above
Method: The photoactivation of 6 was also tested in a RET functional whole cell assay which utilizes β-galactosidase to produce a luminescent readout[24][25][26] (see Methods section for assay details). Compound 6 was added to live cells expressing RET kinase in two identical preparations, followed by 3 h preincubation at 37 °C. At this point, one preparation was exposed to light (365 nm, 15 min), while the other was kept in the dark. Again, 15 min is clearly not sufficient to complete the decaging (see above). Addition of the growth factor neurturin (required to activate the RET kinase) and incubation for 3 h at 22 °C allowed for activity-correlating signal induction using the supplemented detection reagents. […] To again exclude distortive effects of light on the cells, incubations without inhibitor were exposed to light.
PathHunter express c-RET-GFRα2 functional assay and recombinant human neurturin were purchased from DiscoveRx (DiscoveRx Corporation, Fremont CA 94538 USA) and used according to instructions. […] Incubations were performed in the provided assay buffer (1 vol% DMSO) in a white flat/clear-bottom 96-well plate. Incubation volume was 110 μL. Brief procedure; Cells were thawed and diluted to ca. 100 000 cells/mL, followed by plating and acclimatization in 37 °C, 5% CO2, humidified, environment for 48 h. Thereafter, the inhibitor was added and the plate was returned to 37 °C for 3 h. The cells were then stimulated with the GDNF-family growth factor neurturin (applied concentration: 15 ng/mL = EC80) and incubated 3 h at 22 °C in the dark. An activity-correlating luminescence signal was induced using the detection reagent provided in the kit according to the recommended protocol. Luminescence was recorded on a BMG Labtech Fluostar Omega luminometer. All incubations were done in duplicates.

[1] = system: zebrafish embryos tg(olig2:dsRed) (ret); assay: Motoneuron development in zebrafish embryos, confocal imaging at 2 dpf; type: in vivo, Danio rerio
Method: In the light of this, we chose to investigate the decaging of 6 in the transgenic zebrafish line tg(olig2:dsRed)[33], and any effect this may have on the motoneuron development. The choice of zebrafish line is motivated by the labeling of ventral spinal cord precursor cells that produce motoneurons and oligodendrocytes, facilitating the assessment of altered motoneuron phenotypes. Transgenic zebrafish embryos were incubated in 10 μM and 50 μM solutions of 6 at 3 hours post fertilization (hpf) for 11 h. We opted for decaging at 14 hpf since primary motoneurons start to sprout growth cones at 18 hpf[36]. We hypothesized that blocking ret signalling at this time point would primarily affect axonal extension and not formation of motoneurons. After washing with fresh medium the embryos were irradiated for 15 min (365 nm). The embryos were left to develop until 2 days post fertilization (dpf) when their spinal cords were scanned with confocal imaging. […] All experimental procedures were carried out in compliance with relevant guidelines and regulations of the Swedish National Board for Laboratory Animals. The protocols were also approved by the medical ethics committee of University of Gothenburg. Zebrafish (Danio rerio) embryos of strain tg(olig2:dsRed)[32] were kept at the Institute of Neuroscience and Physiology, University of Gothenburg. Fertilized eggs were collected and kept in petri dishes containing embryo medium (EM; 5.03 mM NaCl, 0.17 mM KCl, 0.33 mM CaCl2·2H2O, 0.33 mM MgCl2·6H2O), in darkness, in an incubator at 28.5 °C. Eggs were incubated in either 6 or 1% DMSO from 3 hours post-fertilization (hpf) and then dechorinated at 9 hpf to allow for better compound uptake. After 11 hours of incubation, 14 hpf embryos were washed three times with EM and moved to clean petri dishes containing 1-phenyl 2-thiourea (PTU, 0,003%, Sigma) and diluted in EM to prevent pigmentation. Embryos were irradiated for 15 min (365 nm) and then kept in the incubator until time of confocal imaging. A second set of animals were incubated in 6 from 14 hpf to 24 hpf, after which animals were washed and illuminated in the same way as the first group. Prior to imaging at 2 days post-fertilization (dpf), the embryos were anesthetized using 0.02% tricaine methanesulfonate (MS-222) diluted in EM and embedded in low-melting agarose. The imaging was performed on a ZEISS LSM710 confocal microscope at the Centre for Cellular Imaging at the Sahlgrenska Academy. Stacks of labeled spinal cord neurons were collected using a 561 nm laser. Maximal intensity pictures of spinal cord hemisegments and axonal phenotypes were analyzed using ImageJ (U. S. National Institutes of Health, Bethesda, Maryland, USA) according to Abramsson et al. 2013[38].

RET = system: RET; set-up: method as in PMID 22559926; details: cited from earlier work
[2] = system: GDNF-induced RET phosphorylation of ERK1/2; set-up: method as in PMID 22559926; details: cited from earlier work
[3] = system: RET/PTC1 expressing TPC1 cells; set-up: method as in PMID 25409876; details: cited from earlier work
8505C cells = system: 8505C cells; set-up: method as in PMID 25409876; details: cited from earlier work
C643 cells = system: C643 cells; set-up: method as in PMID 25409876; details: cited from earlier work
MCF7 cells = system: MCF7 cells; set-up: method as in PMID 25409876; details: cited from earlier work
[4] = system: cell lines used (TPC1, 8505C, C643, MCF7); set-up: method as in PMID 25409876; details: any of the cell lines used; cited from earlier work
[5] = Solubility in aqueous media / buffer; type: physicochemical
[6] = Light-induced decaging (365 nm) monitored by HPLC; type: physicochemical
Method: Indeed, this compound was soluble in aqueous buffer (1 vol% DMSO) up to 100 μM. Photoinduced cleavage of 6 was readily achieved with 365 nm light, as monitored by HPLC.
(§1) Steady state absorption measurements (for thermal stability assessment of 6, see Fig. S3) were carried out on a Cary Bio 50 UV/vis spectrometer equipped with a Varian PCB 1500 Water Peltier System thermostat for temperature control. Sample volume was 3.0 mL. […] Irradiation in the assays was accomplished by placing the lamp directly on top of the sample plates/dishes. It should be noted that the exact light conditions in the assays may differ slightly depending on the type of plates/dishes used (see Methods sections below for plate specifications).
Figure S1. Light-induced decaging of 6. A Tris buffer solution (1vol% DMSO) containing 100 µM 6 was successively subjected to t = 0, 3, 6, 9, 12, 15, 30, 60, and 90 min of 365 nm light. After each irradiation period, an aliquot was drawn and analyzed using HPLC with UV detection. The integrated areas for the chromatogram peaks associated with 1 (hollow squares) and 6 (solid circles) were fitted globally (shared time constant) to a first order exponential (solid line), yielding a time constant of τ = 9.6 min for the decaging of 6. It should be noted that the individually extracted time constants for […]
from the globally fitted value.
(§2) (1 picture or pasted object on this page, not shown here)

[7] = Thermal stability in aqueous buffer by UV/vis absorption; type: physicochemical; details: 48 h, 37 °C, 10 mM phosphate buffer pH 7.0, 1 vol% DMSO
Method: as §1
5.3 Thermal stability of 6 in 10 mM phosphate buffer, pH 7.
Figure S3. UV/vis absorption spectra of 6 in 10 mM phosphate buffer (pH 7.0, 1 vol% DMSO) at
t = 0 (solid black line), and after t = 48 h in 37 °C (dashed red line). Inset: Absorption at λ = 321 nm as
as §2

[8] = 100 µM 6 in Tris buffer 1 vol% DMSO

For `CC(C)n1nc(C#Cc2ccccc2)c2c(N)ncnc21` [compound 1], the pIC50 (Human recombinant RET; free inhibitor, no irradiation, 10 μM ATP, 30 min room temperature) was 7.14, the pIC50 (RET kinase (c-RET-GFRα2); free inhibitor, no irradiation, 3 h preincubation 37 °C) was 6.33 and the motoneuron axonal phenotype ([1]; 10 μM during development) was “phenotype was also observed”. The motoneuron axonal phenotype ([1]; 50 μM for 90 min at 6 hpf) was “phenotype was also observed”, the “in vitro activity against RET” value (RET) was “low nM range” and the “selectivity profile toward RET” value (RET) was “partial inhibition of only six other tyrosine kinases”. For the same compound, the “effect on GDNF-induced RET phosphorylation of ERK1/2” value [2] was “inhibitory effect”, the “MAPK signalling and proliferation” value [3] was “inhibited” and the “MAPK signalling and proliferation” value (8505C cells) was “not”. For the same compound, the “MAPK signalling and proliferation” value (C643 cells) was “not”, the “PI3K/Akt and MAPK signalling and estrogen receptor α (ERα) phosphorylation” value (MCF7 cells) was “inhibited” and the proliferation (MCF7 cells) was “inhibit proliferation to a similar degree as tamoxifen”. For the same compound, the cytotoxicity [4] was “No cytotoxicity was observed”.
In the case of `COc1cc(COC(=O)Nc2ncnc3c2c(C#Cc2ccccc2)nn3C(C)C)c([N+](=O)[O-])cc1OC` [compound 2], the “solubility in aqueous media” value [5] was “insufficiently soluble”.
With `COc1cc(COC(=O)Nc2ncnc3c2c(C#Cc2ccccc2)nn3CCO)c([N+](=O)[O-])cc1OC` [compound 3] the “solubility in aqueous media” value [5] was “too low to be practical for biological assays”.
For `COc1cc(COC(=O)Nc2ncnc3c2c(C#Cc2ccccc2)nn3C(C)C)c([N+](=O)[O-])cc1OCC(=O)O` [compound 6, 2-(4-((((1-isopropyl-3-(phenylethynyl)-1H-pyrazolo[3,4-d]pyrimidin-4-yl)carbamoyl)oxy)methyl)-2-methoxy-5-nitrophenoxy)acetic acid], the RET kinase activity (Human recombinant RET; after irradiation) was 10%, the RET kinase activity (Human recombinant RET; before irradiation) was 90% and the “increase of inhibitory capability upon light exposure” value (Human recombinant RET; irradiated (365 nm, 15 min) vs non-irradiated) was 12 fold. For the same compound, the pIC50 (Human recombinant RET; non-irradiated (kept in the dark)) was 5.17, the pIC50 (RET kinase (c-RET-GFRα2); irradiated (365 nm, 15 min)) was 5.06 and the “IC50, live-cell RET activity” value (RET kinase (c-RET-GFRα2); non-irradiated) was “no IC50 value could be obtained”. For the same compound, the “partial inhibition of RET activity in live cells” value (RET kinase (c-RET-GFRα2); non-irradiated, at concentrations higher than 6 μM) was “ca. 40%”, the motoneuron axonal phenotype ([1]; 10 μM, irradiated 15 min at 14 hpf) was “virtually no effect” and the motoneuron axonal phenotype ([1]; 50 μM from 3 hpf for 11 h, irradiated 15 min 365 nm at 14 hpf, imaged 2 dpf) was “motoneurons with shortened and malformed axons”. The motoneuron axonal phenotype ([1]; irradiated at 24 hpf after 10 h of incubation and wash) was “similar, but less severe, axonal phenotypes”, the motoneuron axonal phenotype ([1]; non-irradiated embryos (50 μM)) was “did not show any phenotypic anomalies” and the solubility ([5]; kinetic from dmso stock, aqueous buffer, 1 vol% DMSO) was no more than 100 µM. The “exposure time required for complete (>99%) decaging” value [6] was “at least 45 minutes”, the “time constant τ, consumption of 6 (individual fit)” value [6, 8] was 8.7 min and the “time constant τ, liberation of 1 (individual fit)” value [6, 8] was 13.1 min. The “time constant τ of decaging, global fit (first order)” value ([6]; 1.5 mW/cm^2, 100 µM in Tris buffer 1 vol% DMSO) was 9.6 min and the “thermal stability (absorption spectrum)” value [7] was “no changes in the absorption spectrum were detected; also recorded: No signs of degradation”.
